In the experiment the test system is luciferase reporter construct containing a UGA premature termination codon. Kind of experiment: cell-based luciferase reporter assay (nonsense suppression / readthrough). The arrangement: key: *****: both extremely high potency and extremely high efficacy of protein synthesis; ****: extremely high potency of protein synthesis and very high efficacy; ****: very high potency of protein synthesis and extremely high efficacy; ***: both very high potency and very high efficacy of protein synthesis; **: very high potency of protein synthesis and significant efficacy; **: significant potency of protein synthesis and very high efficacy; *: significant potency and efficacy of protein synthesis. Particulars: ranking combining potency and efficacy of protein synthesis; UGA luciferase reporter stably transfected in 293T Human Embryonic Kidney cells. As for the experimental part: Activity measurements in Table I were performed in a cell-based luciferase reporter assay (as described in Section 4.2) comprising a luciferase reporter construct containing a UGA premature termination codon that was stably transfected in 293T Human Embryonic Kidney cells. A small molecule (3-[3-(4-Isopropyl-phenyl)-2,5-dioxoimidazolidin-1-yl]-benzoic acid) known to allow readthrough of premature termination codons, was used as an internal standard. Activity measurements are based on the qualitative relation between the minimum concentration of compound required to produce a given protein in a cell (potency) and the maximum amount of protein produced by the cell (efficacy). Potency and efficacy activities are ranked as either extremely high, very high or significant.
The test compounds identified in the nonsense suppression assay (for convenience referred to herein as a “lead” compound) can be tested for biological activity using host cells containing or engineered to contain the target RNA element coupled to a functional readout system. For example, the lead compound can be tested in a host cell engineered to contain the RNA with the premature translation termination codon controlling the expression of a reporter gene. In this example, the lead compounds are assayed in the presence or absence of the RNA with the premature translation termination codon. Compounds that modulate premature translation termination and/or nonsense-mediated mRNA decay in vivo will result in increased expression of the full-length gene, i.e., past the premature termination codon. Alternatively, a phenotypic or physiological readout can be used to assess activity of the target RNA with the premature translation termination codon in the presence and absence of the lead compound. Both the in vitro and in vivo nonsense suppression assays used herein and as described in International Patent Publication WO 01/44516, which is incorporated by reference in its entirety, can be used to identify lead compounds can also be used to determine an EC50 for the lead compounds.
A stable cell line harboring the […] nonsense-containing luciferase gene is treated with a test compound. Cells are grown in standard medium supplemented with 1% penicillin-streptomycin (P/S) and 10% fetal bovine serum (FBS) to 70% confluency and split 1:1 the day before treatment. The next day, cells are trypsinized and 40,000 cells are added to each well of a 96-well tissue culture dish. Serial dilutions of each compound are prepared to generate a six-point dose response curve spanning 2 logs ([…]). The final concentration of the DMSO solvent remains constant at 1% in each well. Cells treated with 1% DMSO serve as the background standard, and cells treated with gentamicin serve as a positive control.
For orientation: In a reporter assay the amount or activity of a reporter protein is the signal.

Regarding `O=C(O)c1cccc(N2CCN(c3cccc(OC(F)(F)F)c3)C2=O)c1` [Compound 64, 3-[2-Oxo-3-(3-trifluoromethoxy-phenyl)-imidazolidin-1-yl]-benzoic acid], the Activity result is recorded as “****”.
The value for `O=C(O)c1cccc(N2CCN(c3ccc(OC(F)F)cc3)C2=O)c1` [Compound 39, 3-[3-(4-Difluoromethoxy-phenyl)-2-oxo-imidazolidin-1-yl]-benzoic acid] was “*****”.
Take `O=C(O)c1cccc(N2CCN(c3cccs3)C2=O)c1` [Compound 73, 3-(2-Oxo-3-thiophen-2-yl-imidazolidin-1-yl)-benzoic acid]: the Activity result is “****”.
The value for `CC(C)(C)c1ccc(N2CC(=O)N(c3cccc(C(=O)O)c3)C2=O)cc1` [Compound 28, 3-[3-(4-tert-Butylphenyl)-2,5-dioxoimidazolidin-1-yl]-benzoic acid] was “**”.
The same measure for `O=C(O)c1cccc(N2C(=O)CN(c3ccc(Cc4ccccc4)cc3)C2=O)c1` [Compound 16, 3-[3-(4-benzyl-phenyl)-2,5-dioxo-imidazolidin-1-yl]-benzoic acid]: “*”; for `CN1CCN(C(=O)COc2ccc(N3CCN(c4cccc(C(=O)O)c4)C3=O)cc2)CC1` [Compound 78, 3-(3-{4-[2-(4-Methyl-piperazin-1-yl)-2-oxo-ethoxy]-phenyl}-2-oxo-imidazolidin-1-yl)-benzoic acid]: “*”.
For `Cc1ccc(N2CCN(c3cccc(C(=O)O)c3)C2=O)cc1` [Compound 48, 3-(2-Oxo-3-p-tolyl-imidazolidin-1-yl)-benzoic acid], the Activity result is reported as “*****”.
The value for `O=C(O)c1cccc(N2CCN(c3ccc(OC(F)(F)F)cc3)C2=O)c1` [Compound 38, 3-[2-Oxo-3-(4-trifluoro-methoxy-phenyl)-imidazolidin-1-yl]-benzoic acid] was “*****”; that for `O=C(O)c1cccc(N2CCN(c3ccccc3F)C2=O)c1` [Compound 68, 3-[3-(2-Fluoro-phenyl)-2-oxo-imidazolidin-1-yl]-benzoic acid] was “***”.
`O=C(O)c1cccc(N2C(=O)CN(c3ccc(Oc4ccccc4)cc3)C2=O)c1` [Compound 3, 3-[2,5-dioxo-3-(4-phenoxy-phenyl)-imidazolidin-1-yl]-benzoic acid]: the Activity result is on record as “**”.
The same measure for `O=C(O)c1cccc(N2CC(=O)N(c3ccc(Oc4ccccc4)cc3)C2=O)c1` [Compound 12, 3-[2,4-dioxo-3-(4-phenoxy-phenyl)-imidazolidin-1-yl]-benzoic acid]: “*”; for `O=C(O)c1cccc(N2CCN(c3ccc(F)c(F)c3)C2=O)c1` [Compound 65, 3-[3-(3,4-Difluoro-phenyl)-2-oxo-imidazolidin-1-yl]-benzoic acid]: “*****”.
The same measure for `O=C(O)c1ccc(F)c(N2CCN(c3ccc(C(F)(F)F)cc3)C2=O)c1` [Compound 55, 4-Fluoro-3-[2-oxo-3-(4-trifluoromethyl-phenyl)-imidazolidin-1-yl]-benzoic acid]: “*”.
The same measure for `COc1ccc(C(=O)O)cc1N1CCN(c2ccc(C(F)(F)F)cc2)C1=O` [Compound 52, 4-Methoxy-3-[2-oxo-3-(4-trifluoromethyl-phenyl)-imidazolidin-1-yl]-benzoic acid]: “*”; for `CC(C)c1ccc(N2CC(=O)N(c3cccc(C(=O)O)c3)C2=O)cc1` [Compound 1, 3-[3-(4-isopropyl-phenyl)-2,5-dioxo-imidazolidin-1-yl]-benzoic acid]: “***”; for `COC(=O)c1ccc(N2CC(=O)N(c3cccc(C(=O)O)c3)C2=O)cc1` [Compound 25, 3-[3-(4-methoxycarbonylphenyl)-2,5-dioxoimidazolidin-1-yl]-benzoic acid]: “*”.
For `CC(C)Oc1ccc(N2CCN(c3cccc(C(=O)O)c3)C2=O)cc1` [Compound 40, 3-[3-(4-Isopropoxy-phenyl)-2-oxo-imidazolidin-1-yl]-benzoic acid], the Activity entry is given as “*****”.
With `O=C(O)c1cccc(N2CCN(c3ccc(OCC(=O)N4CCN(c5ccccc5)CC4)cc3)C2=O)c1` [Compound 61, 3-(2-Oxo-3-{4-[2-oxo-2-(phenyl-piperazin-1-yl)-ethoxy]-phenyl}-imidazolidin-1-yl)-benzoic acid], the Activity entry is recorded as “*”.
The same measure for `O=C(O)c1cccc(N2CCN(c3ccc4c(c3)OC(F)(F)C(F)(F)O4)C2=O)c1` [Compound 51, 3-[2-Oxo-3-(2,2,3,3-tetrafluoro-2,3-dihydro-benzo[1,4]dioxin-6-yl)-imidazolidin-1-yl]-benzoic acid]: “*****”; for `O=C(O)c1cccc(N2CCN(c3ccc(N4CCC(N5CCCCC5)CC4)cc3)C2=O)c1` [Compound 81, 3-[3-(4-[1,4′]Bipiperidinyl-1′-yl-phenyl)-2-oxo-imidazolidin-1-yl]-benzoic acid]: “*”; for `CC(C)c1ccc(N(CC(=O)[O-])C(=O)Nc2cccc(C(=O)[O-])c2)cc1.[Na+].[Na+]` [Compound 4, 3-[3-carboxymethyl-3-(4-isopropyl-phenyl)-ureido]-benzoic acid disodium salt]: “***”.
The same measure for `O=C(O)c1cccc(N2CCN(c3ccc(-n4cccc4)cc3)C2=O)c1` [Compound 46, 3-[2-Oxo-3-(4-pyrrol-1-yl-phenyl)-imidazolidin-1-yl]-benzoic acid]: “*****”; for `Cc1ccc(N2CCN(c3cccc(C(=O)O)c3)C2=O)cc1F` [Compound 71, 3-[3-(3-Fluoro-4-methyl-phenyl)-2-oxo-imidazolidin-1-yl]-benzoic acid]: “*****”.
The same measure for `COc1ccc(N2CCN(c3ccc(C(F)(F)F)cc3)C2=O)cc1C(=O)O` [Compound 57, 2-Methoxy-5-[2-oxo-3-(4-trifluoromethyl-phenyl)-imidazolidin-1-yl]-benzoic acid]: “*”; for `O=C(O)c1cccc(N2CCN(c3cc(F)ccc3F)C2=O)c1` [Compound 67, 3-[3-(2,5-Difluoro-phenyl)-2-oxo-imidazolidin-1-yl]-benzoic acid]: “**”; for `O=C(Nc1ccc(Br)cc1)Nc1cccc(C(=O)O)c1` [Compound 22, 3-[3-(4-bromo-phenyl)-ureido]-benzoic acid]: “*”.
As for `CC(C)c1ccc(N2CCN(c3cccc(C(=O)O)c3)S2(=O)=O)cc1` [Compound 15, 3-[5-(4-isopropyl-phenyl)-1,1-dioxo-1l6-[1,2,5]-thiadiazolidin-2-yl]-benzoic acid], the Activity entry is “**”.
The value for `O=C(O)c1cccc(N2C(=O)CN(c3ccc(-c4ccccc4)cc3)C2=O)c1` [Compound 2] was “***”; that for `COc1ccccc1CN1CC(=O)N(c2cccc(C(=O)O)c2)C1=O` [Compound 14, 3-[3-(2-methoxy-benzyl)-2,5-dioxo-imidazolidin-1-yl]-benzoic acid] was “*”; that for `O=C(O)c1cccc(N2C(=O)CN(c3ccc(I)cc3)C2=O)c1` [Compound 23, 3-[3-(4-iodo-phenyl)-2,5-dioxo-imidazolidin-1-yl]-benzoic acid] was “***”.
Consider `O=C(O)c1cccc(N2CCN(c3ccc(F)cc3)C2=O)c1` [Compound 70, 3-[3-(4-Fluoro-phenyl)-2-oxo-imidazolidin-1-yl]-benzoic acid], for which the Activity entry was “*****”.
Regarding `CC(C)c1ccc(-n2ccn(-c3cccc(C(=O)O)c3)c2=O)cc1` [Compound 35, 3-[3-(4-Isopropyl-phenyl)-2-oxo-2,3-dihydro-imidazol-1-yl]-benzoic acid], the Activity result is recorded as “***”.
The same measure for `Cc1ccc(N2CC(=O)N(c3cccc(C(=O)O)c3)C2=O)cc1` [Compound 26, 3-(2,5-Dioxo-3-p-tolylimidazolidin-1-yl)-benzoic acid]: “*”; for `O=C(O)c1cccc(N2CCN(c3ccc(N4CCCCC4)cc3)C2=O)c1` [Compound 59, 3-[2-Oxo-3-(4-piperidin-1-yl-phenyl)-imidazolidin-1-yl]-benzoic acid]: “****”.
The value for `O=C(O)c1cccc(N2CCN(c3ccc(F)cc3F)C2=O)c1` [Compound 75, 3-[3-(2,4-Difluoro-phenyl)-2-oxo-imidazolidin-1-yl]-benzoic acid] was “*”.

Source of the values: patent US8334313B2, “Ureido substituted benzoic acid compounds and their use for nonsense suppression and the treatment of disease” (PTC Therapeutics, Inc., priority 2002, dated 2012).
